{
  "source": "paper PMC11984586",
  "about": "“A novel spider toxin as a selective antagonist of the Kv1 subfamily of voltage-gated potassium channels through gating modulation” (The Journal of Biological Chemistry, 2025)",
  "key": {"[1]": {"molecular_target": "T1, Kv1.7/I386C mutant (Kv1.7∗) (Homo sapiens, UniProt Q96RP8, I386C)", "T1 construct": "expressed in transfected cells; host or cells: HEK293T", "T1 sequence (Q96RP8 whole entry I386C)": "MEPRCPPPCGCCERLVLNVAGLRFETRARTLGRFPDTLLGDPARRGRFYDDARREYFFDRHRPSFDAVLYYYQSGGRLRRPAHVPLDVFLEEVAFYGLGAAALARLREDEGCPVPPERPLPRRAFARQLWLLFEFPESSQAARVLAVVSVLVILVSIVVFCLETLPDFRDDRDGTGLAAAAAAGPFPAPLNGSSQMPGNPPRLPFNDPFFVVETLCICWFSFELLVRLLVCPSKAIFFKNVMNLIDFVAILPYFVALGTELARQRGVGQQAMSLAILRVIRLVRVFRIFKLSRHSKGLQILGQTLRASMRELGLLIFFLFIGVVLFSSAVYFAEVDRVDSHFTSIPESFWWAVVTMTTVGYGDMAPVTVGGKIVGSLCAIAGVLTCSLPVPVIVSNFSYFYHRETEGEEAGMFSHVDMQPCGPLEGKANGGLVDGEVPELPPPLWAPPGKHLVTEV", "assay": "Gating-current recording, Kv1.7* in HEK293T cells", "assay_type": "cell-based", "settings": "for inhibition at 10 µM: HEK-293T", "experimental": "The cDNA of hKv1.1, hKv1.2, hKv1.3, rKv1.4, hKv1.5, mKv1.6, and hKv1.7 were subcloned into mammalian expression vectors pcDNA3.1 or pCMV-blank vectors, as well as other plasmids described previously ([35]). Channel mutants were generated by site-directed mutations. Briefly, the parental channel plasmid was amplified using a pair of oppositely directed primers harboring the designed mutation site, with KOD Fx (TOYOBO Co, Ltd). The resulting PCR mix was treated with FastDigest DpnI (Thermo Fisher Scientific) to remove the methylated template. Ten microliters of the digested product was then used to transform 100 μl E. coli DH5α competent cells. Transformants were randomly picked and sequenced to confirm the presence of the intended mutation.\n(§1) CHO-K1 cells were selected for expressing Kv channels due to their lack of endogenous Kv channels, while HEK293 or ND7/23 cells were used for Nav and Cav channel expression. CHO-K1 cells were cultured in a Dulbecco's modified Eagle's medium/Ham's F-12 nutrient mixture (DMEM-F12) medium, and HEK293T and ND7/23 cells in DMEM medium, all supplemented with 10% fetal bovine serum and 1% penicillin-streptomycin (all from Gibco, Thermo Fisher Scientific, Inc) under standard conditions (37 °C, 5% CO2, and saturated humidity). These cell lines were purchased from Stem Cell Bank, Chinese Academy of Sciences. Channel plasmids were cotransfected with pEGFP-N1 (encoding GFP) into the respective cells using lipofectamine 2000, following the manufacturer's instructions (Invitrogen, Thermo Fisher Scientific, Inc.). Nav1.9-GFP plasmid was transfected into ND7/23 using the X-tremeGENE HP DNA Transfection Reagent (Roche). After 4 to 6 h transfection, cells were seeded onto poly-lysine–coated coverslips, and 24 to 36 h later, transfected cells were ready for patch-clamp analysis.\n(§2) Patch clamp experiments were conducted using an electrophysiology platform comprising a MultiClamp 700B amplifier and an Axon Digidata 1550 AD/DA convertor (Axon Instruments). Data acquisition was performed with pClamp 10.5 software (Axon Instruments). All experiments were performed at room temperature.\nGating currents were recorded by transfecting HEK293T cells with a saturating dose of plasmid to ensure maximal channel expression. The Kv1.3/I472C and Kv1.7/I386C mutants were used to record the IgOFF, minimizing slow voltage sensor return as reported in previous studies ([28]). The bath solution contained (in mM) the following: 140 NMDG, 50 Hepes, 2 CaCl2, 2 MgCl2, 0.1 EDTA, and 0.01 CsCl (pH 7.3, adjusted with methanesulfonic acid), and the pipette solution contained (in mM) the following: 140 NMDG, 1 NMDG-Cl, 50 HF, 5 EGTA, and 50 Hepes (pH 7.3, adjusted with methanesulfonic acid). Gating charge movement (Q) was determined by integrating the area under the IgON and IgOFF traces, representing voltage sensor movement in response to depolarizing pulses. The data were normalized and plotted against voltage to generate Q-V curves, which were fitted using a Boltzmann function to estimate the voltage dependence of charge movement."}, "Kv2.1": {"test_system": "Kv2.1", "assay": "Selectivity patch clamp, non-Kv1 channels", "assay_type": "cell-based", "settings": "10 μM MrVIII; n = 3–5", "experimental": "as §1, §2\n(§3) For Kv current recordings, the bath solution contained (in mM) the following: 140 NaCl, 5 KCl, 1 MgCl2, 2 CaCl2, 10 glucose, and 10 Hepes (pH 7.3, adjusted with NaOH), and the pipette solution contained (in mM) the following: 140 KCl, 2.5 MgCl2, 11 EGTA, and 10 Hepes (pH 7.3, adjusted with KOH). Series resistance was maintained below 10 MΩ and compensated to 80%. Concentration–response curves were fitted by the Hill equation to determine the toxin's potency. Whole cell conductance (G) at each depolarizing voltage (V) was determined using the equation: G = I/(V−Vrev), where I is the current amplitude, and Vrev is the reversal potential. The reversal potential for K^+ current was estimated to be −85.6 mV using the Nernst equation. G-V curves were obtained by plotting the normalized conductance as a function of V and fitted by the Boltzmann equation: y = 1/(1+ exp((Va-V)/k)), which Va is the midpoint voltage, V is the test potential, and k is the slope factor. The steady-state fast inactivation of Kv1.3 was measured using a two-pulses protocol. The cell was held at −120 mV, and a train of conditional voltages (−120–40 mV in 10 mV increments, 60 s) were applied to induce channel inactivation, followed by a +60 mV test pulse (300 ms) to assess the proportion of noninactivated channels. The sweep interval was set to 30 s. Currents at the test pulse (I) were normalized to the maximum value (Imax) and plotted as a function of the conditional voltage (V). The curve was fitted by the Boltzmann equation: I/Imax = A+(1 − A)/(1+exp ((V−Vh)/K)), where Vh is the half-maximum inactivation voltage, A represents the minimum channel availability, and k is the slope factor."}, "Kv3.1-3.3": {"test_system": "Kv3.1-3.3", "assay": "Selectivity patch clamp, non-Kv1 channels", "assay_type": "cell-based", "settings": "10 μM MrVIII; n = 3–5", "experimental": "as §1, §2, §3"}, "Kv4.1-4.3": {"test_system": "Kv4.1-4.3", "assay": "Selectivity patch clamp, non-Kv1 channels", "assay_type": "cell-based", "settings": "10 μM MrVIII; n = 3–5", "experimental": "as §1, §2, §3"}, "Kv7.1": {"test_system": "Kv7.1", "assay": "Selectivity patch clamp, non-Kv1 channels", "assay_type": "cell-based", "settings": "10 μM MrVIII; n = 3–5", "experimental": "as §1, §2, §3"}, "Kv7.3": {"test_system": "Kv7.3", "assay": "Selectivity patch clamp, non-Kv1 channels", "assay_type": "cell-based", "settings": "10 μM MrVIII; n = 3–5", "experimental": "as §1, §2, §3"}, "hERG": {"test_system": "hERG", "assay": "Selectivity patch clamp, non-Kv1 channels", "assay_type": "cell-based, human", "settings": "10 μM MrVIII; n = 3–5", "experimental": "as §1, with “Channel plasmids were cotransfected with pEGFP-N1 (encoding GFP) into the respective cells using lipofectamine 2000, following the manufacturer's instructions (Invitrogen, Thermo Fisher Scientific, Inc.). Nav1.9-GFP plasmid was transfected into ND7/23 using the X-tremeGENE HP DNA Transfection Reagent (Roche).” left out, “analysis. […]” for “analysis.”\nFor Kv current recordings, the bath solution contained (in mM) the following: 140 NaCl, 5 KCl, 1 MgCl2, 2 CaCl2, 10 glucose, and 10 Hepes (pH 7.3, adjusted with NaOH), and the pipette solution contained (in mM) the following: 140 KCl, 2.5 MgCl2, 11 EGTA, and 10 Hepes (pH 7.3, adjusted with KOH). […] Whole cell conductance (G) at each depolarizing voltage (V) was determined using the equation: G = I/(V−Vrev), where I is the current amplitude, and Vrev is the reversal potential. […] The steady-state fast inactivation of Kv1.3 was measured using a two-pulses protocol. […]"}},
  "note": "Where two headings read alike, the source gives them in different places. Bridge positions count the residues as written; N and C are the ends. Peptide text beside a SMILES is read from it.",
  "data": [
    {"smiles": "CC[C@H](C)[C@@H]1NC(=O)[C@H](Cc2ccc(O)cc2)NC(=O)[C@H](CCC(N)=O)NC(=O)[C@@H]2CCCN2C(=O)[C@@H]2CSSC[C@H](NC(=O)[C@H](C)NC(=O)[C@H](CO)NC(=O)[C@H](CCC(=O)O)NC(=O)[C@H](CCC(=O)O)NC(=O)[C@@H](N)[C@@H](C)O)C(=O)NCC(=O)NCC(=O)N[C@@H](Cc3ccccc3)C(=O)N[C@@H](CC(N)=O)C(=O)N[C@@H](C)C(=O)N[C@@H](CCCNC(=N)N)C(=O)N[C@H]3CSSC[C@H](NC1=O)C(=O)N[C@@H](CCCCN)C(=O)NCC(=O)N[C@@H](Cc1c[nH]c4ccccc14)C(=O)N[C@@H](CCCNC(=N)N)C(=O)N[C@@H]([C@@H](C)O)C(=O)N[C@@H](CCCCN)C(=O)N[C@@H](CCCNC(=N)N)C(=O)N[C@H](C(=O)N[C@@H](CC(C)C)C(=O)N[C@@H](CC(N)=O)C(=O)N1CCC[C@H]1C(=O)O)CSSC[C@H](NC(=O)[C@H](CCCCN)NC(=O)[C@H](Cc1c[nH]cn1)NC(=O)[C@H](CC(C)C)NC(=O)[C@@H]1CCCN1C3=O)C(=O)N2", "note": "[MrVIII] (H-TEESACGGFNARCPLHKCCPQYICKGWRTKRCLNP-OH; disulfide 6-19, 13-24, 18-32; N-terminus and C-terminus assumed)", "values": [
      {"measurement": "Va of Q-V curve of Kv1.7∗ after toxin", "setting": "[1]; 500 nM MrVIII, before toxin −6.4 ± 2.9 mV, mean ± SD, n = 5, SD", "value": "−4.3 ± 3.8", "unit": "mV"},
      {"measurement": "effect on IgON of Kv1.7∗", "setting": "[1]; 10 μM MrVIII, 500 ms depolarization", "value": "completely inhibited"},
      {"measurement": "IC50", "setting": "[1]; +30 mV for 50 ms, held at −100 mV, HEK293T, mean ± SD, n = 11, SD, read-out: IC50, inhibition of IgON current of Kv1.7∗", "value": "214 ± 91.8", "unit": "nM"},
      {"measurement": "inhibition at 10 µM", "setting": "[1]; 10 μM MrVIII, 50 ms depolarization at +30 mV, mean ± SD, n = 11, SD, read-out: inhibition of IgOFF of Kv1.7∗", "value": "~74.1", "unit": "%"},
      {"measurement": "inhibition at 10 µM", "setting": "[1]; 10 μM MrVIII, 500 ms depolarization, mean ± SD, n = 5, SD, read-out: inhibition rate of IgOFF of Kv1.7∗", "value": "13.1 ± 5.5", "unit": "%"},
      {"measurement": "inhibition of Kv2.1 current", "setting": "Kv2.1", "value": "did not remarkably inhibit"},
      {"measurement": "inhibition of Kv3.1-3.3 currents", "setting": "Kv3.1-3.3", "value": "did not remarkably inhibit"},
      {"measurement": "inhibition of Kv4.1-4.3 currents", "setting": "Kv4.1-4.3", "value": "did not remarkably inhibit"},
      {"measurement": "inhibition of Kv7.1 current", "setting": "Kv7.1", "value": "did not remarkably inhibit"},
      {"measurement": "inhibition of Kv7.3 current", "setting": "Kv7.3", "value": "did not remarkably inhibit"},
      {"measurement": "inhibition of hERG current", "setting": "hERG", "value": "did not remarkably inhibit"}
    ]}
  ]
}
